Data from US7317037B2, “Progesterone receptor modulators comprising pyrrole-oxindole derivatives and uses thereof” (Wyeth, priority 2004, dated 2008).

Columns and labels:
[1] = tested on: menses induction; experiment: Cynomolgus monkey menses induction assay; type: in vivo; settings: 5 mg/kg po
Method: C. Cynomolgus Monkey […] Induction 1. Experimental Design The effects of administered compound(s) in either a single dose or a dose-response paradigm versus an appropriate control (vehicle alone) are determined. When a compound is tested at a single dose, a group of four animals will be used for the dose. In the dose response study, each experiment will involve up to 5 groups of animals (a control group and 4 groups of animals treated with varying doses of the compound). Experimental groups will contain 3-4 animals/group, since this sample size is commonly used in the literature and has been found appropriate based on our own experience. The animals are treated with test compounds once or twice daily for 4 days in the mid-luteal phase of the menstrual cycle to assess the efficacy of the compounds on the reproductive parameters menstruation. 2. Procedures Initially, animals are characterized in terms of their reproductive cyclicity by observing time of menstruation. Only those animals with two consecutive normal cycles are used to evaluate test compounds. […] will be determined by daily gross examination for vaginal bleeding. In each experiment, animals will be treated once or twice daily IV, IM, SC or PO with the test compound. Appropriate vehicles will be determined for each route of administration and will be specified through protocol amendments. […]

[2] = tested on: rat uterine decidualization; experiment: Rat decidualization assay; type: in vivo; settings: po, read-out: ED50 in the rat decidual assay
Method: B. Progestational and Antiprogestational Activity in Mature Ovariectomized Rats (Rat Decidualization Assay)
This assay is used to evaluate the effect of progestins and antiprogestins on rat uterine decidualization and compare the relative potencies of various test compounds.
Test compounds are dissolved in 100% ethanol and mixed with corn oil (vehicle). Stock solutions of the test compounds in oil (Mazola™) are then prepared by heating (˜80° C.) the mixture to evaporate ethanol. Test compounds are subsequently diluted with 100% corn oil or 10% ethanol in corn oil prior to the treatment of animals. No difference in decidual response is found when these two vehicles are compared. […]
Approximately 24 hr after the third injection, decidualization is induced in one of the uterine horns of anesthetized rats by scratching the antimesometrial luminal epithelium with a blunt 21 G needle. […] Approximately 24 hr following the final treatment, rats are sacrificed by […] and bodyweight measured. […]
In agonist mode, the increase in weight of the decidualized uterine horn is calculated by D-horn/C-horn and logarithmic transformation is used to maximize normality and homogeneity of variance. […] EC50 is calculated from the transformed value. […] IC50 is calculated from the retransformed value. […]

Cn1c(C#N)ccc1-c1cc(F)c2c(c1)C(C)(C)C(=O)N2 [5-(7-fluoro-3,3-dimethyl-2-oxo-2,3-dihydro-1H-indol-5-yl)-1-methyl-1H-pyrrole-2-carbonitrile]
induction of early onset of menses [1]: 4 out of 5 | ED50 [2]: 0.1 mg/kg
